Like-named read-outs stand apart in the source and are kept apart here.
Legend:
EGFR wild type (EGFR WT) = EGFR wild type (EGFR WT) (Homo sapiens (Human), UniProt P00533); assay: Cellular phosphorylation assay, EGF-stimulated EGFR phosphorylation in engineered NIH 3T3 cells, Phospho-EGFR DuoSet IC ELISA, Assay 5; format: cell-based
Outline: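 Phospho-EGFR ELISA on lysates of engineered NIH 3T3 EGFR WT cells, IC50 derived from concentration curves. Cells plated at 20,000/well overnight, given compound dilutions 1 h at 37 °C, then rEGF 100 ng/ml for a further 10 min before lysis.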

[1] = molecular target: ErbB2 with Exon 20 YVMA insertion (HER2-YVMA) (Homo sapiens (Human), UniProt P04626, INS775YVMA); assay: Cellular phosphorylation assay, constitutive ErbB2 phosphorylation (Y1196) in engineered NIH 3T3 cells, Assay 4; format: cell-based
ErbB2 with Exon 20 YVMA insertion (HER2-YVMA), sequence (P04626 other isoform, or with tags, fused parts or gaps ins YVMA behind 775): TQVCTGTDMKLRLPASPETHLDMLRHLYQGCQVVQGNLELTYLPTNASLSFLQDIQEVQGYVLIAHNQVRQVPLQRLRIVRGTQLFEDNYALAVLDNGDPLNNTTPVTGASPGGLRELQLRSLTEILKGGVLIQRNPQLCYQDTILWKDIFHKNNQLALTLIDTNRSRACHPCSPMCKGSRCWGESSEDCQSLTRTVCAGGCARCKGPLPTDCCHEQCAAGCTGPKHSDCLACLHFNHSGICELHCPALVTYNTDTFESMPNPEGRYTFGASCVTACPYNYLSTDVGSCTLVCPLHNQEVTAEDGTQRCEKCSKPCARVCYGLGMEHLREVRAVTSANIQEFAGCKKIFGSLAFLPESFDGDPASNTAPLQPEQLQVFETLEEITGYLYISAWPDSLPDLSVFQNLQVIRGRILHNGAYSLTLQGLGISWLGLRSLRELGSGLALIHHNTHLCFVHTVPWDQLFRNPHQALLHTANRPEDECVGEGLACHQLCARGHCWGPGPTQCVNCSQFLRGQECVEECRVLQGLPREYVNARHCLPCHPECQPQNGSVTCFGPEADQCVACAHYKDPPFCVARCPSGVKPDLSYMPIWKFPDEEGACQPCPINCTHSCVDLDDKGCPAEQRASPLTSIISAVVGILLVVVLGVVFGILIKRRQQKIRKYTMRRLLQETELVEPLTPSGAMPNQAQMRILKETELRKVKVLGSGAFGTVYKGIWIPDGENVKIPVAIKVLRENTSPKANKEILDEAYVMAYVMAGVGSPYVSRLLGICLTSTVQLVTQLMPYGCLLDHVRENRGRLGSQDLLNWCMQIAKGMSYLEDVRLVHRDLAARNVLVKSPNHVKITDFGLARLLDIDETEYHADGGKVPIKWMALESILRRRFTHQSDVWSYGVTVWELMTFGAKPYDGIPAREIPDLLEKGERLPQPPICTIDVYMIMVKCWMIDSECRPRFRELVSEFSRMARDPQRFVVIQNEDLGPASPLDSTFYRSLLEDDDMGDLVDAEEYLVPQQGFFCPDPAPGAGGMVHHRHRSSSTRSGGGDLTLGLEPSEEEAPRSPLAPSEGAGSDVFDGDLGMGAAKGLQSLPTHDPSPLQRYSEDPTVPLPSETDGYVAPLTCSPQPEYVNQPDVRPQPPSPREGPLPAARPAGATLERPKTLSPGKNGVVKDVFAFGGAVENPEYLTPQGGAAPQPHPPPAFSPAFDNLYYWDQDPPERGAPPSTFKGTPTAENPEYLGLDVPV
Outline: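 In-cell Western in NIH 3T3 cells carrying ErbB2 exon 20 YVMA insertion, with no ligand stimulation. One hour compound exposure at 37 °C before fixation and anti-pY1196 plus GAPDH staining with dual-wavelength fluorescence. IC50 derived after GAPDH normalization.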

EGFR = EGFR (Homo sapiens (Human), UniProt P00533); assay: ErbB enzyme assay (CisBio HTRF KinEASE-TK), Assay 3; format: biochemical
EGFR, sequence (P00533 25-1210): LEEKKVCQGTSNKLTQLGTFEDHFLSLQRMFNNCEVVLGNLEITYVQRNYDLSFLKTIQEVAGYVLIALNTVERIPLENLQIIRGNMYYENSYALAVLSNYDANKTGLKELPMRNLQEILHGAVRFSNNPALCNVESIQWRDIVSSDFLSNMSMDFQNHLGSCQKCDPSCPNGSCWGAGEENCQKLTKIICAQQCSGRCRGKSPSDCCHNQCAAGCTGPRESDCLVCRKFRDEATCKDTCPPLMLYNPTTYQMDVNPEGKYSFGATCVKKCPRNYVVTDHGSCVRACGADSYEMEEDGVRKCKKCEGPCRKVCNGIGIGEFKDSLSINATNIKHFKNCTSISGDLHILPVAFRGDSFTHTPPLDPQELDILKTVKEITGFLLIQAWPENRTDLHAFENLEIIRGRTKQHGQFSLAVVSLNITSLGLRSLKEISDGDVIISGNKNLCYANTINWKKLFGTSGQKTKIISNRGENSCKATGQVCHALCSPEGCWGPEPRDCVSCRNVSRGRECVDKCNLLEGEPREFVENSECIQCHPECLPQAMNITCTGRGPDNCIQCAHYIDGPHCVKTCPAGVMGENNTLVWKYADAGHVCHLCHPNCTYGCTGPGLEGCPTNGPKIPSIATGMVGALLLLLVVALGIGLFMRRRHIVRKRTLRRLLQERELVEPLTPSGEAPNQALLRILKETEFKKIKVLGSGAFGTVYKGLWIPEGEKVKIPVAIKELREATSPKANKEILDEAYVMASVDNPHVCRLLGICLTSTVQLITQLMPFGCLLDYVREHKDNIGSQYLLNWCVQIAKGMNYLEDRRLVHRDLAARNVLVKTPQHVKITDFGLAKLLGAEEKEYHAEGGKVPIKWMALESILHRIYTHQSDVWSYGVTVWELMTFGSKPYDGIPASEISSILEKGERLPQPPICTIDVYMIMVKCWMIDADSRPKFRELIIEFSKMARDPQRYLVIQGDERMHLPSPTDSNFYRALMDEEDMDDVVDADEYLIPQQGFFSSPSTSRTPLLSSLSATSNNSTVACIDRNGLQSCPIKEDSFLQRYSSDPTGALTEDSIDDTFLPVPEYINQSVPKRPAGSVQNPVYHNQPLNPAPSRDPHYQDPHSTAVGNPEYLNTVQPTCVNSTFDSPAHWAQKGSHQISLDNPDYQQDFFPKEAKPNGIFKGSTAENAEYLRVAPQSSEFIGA
Outline: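 HTRF dual-wavelength read after 1 h detection; POC normalised to DMSO (100) and pre-quenched (0) controls, IC50 where 4-parameter curve crosses 50 POC. Reaction: 250 nM TK-substrate biotin, 1 mM ATP, pH 7.4 HEPES buffer with MgCl2, 30 min, 22 °C.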

ErbB2 WT = ErbB2 WT (Homo sapiens (Human), UniProt P04626); assay: ErbB enzyme assay (CisBio HTRF KinEASE-TK), Assay 2; format: biochemical
ErbB2 WT, sequence (P04626 23-1255): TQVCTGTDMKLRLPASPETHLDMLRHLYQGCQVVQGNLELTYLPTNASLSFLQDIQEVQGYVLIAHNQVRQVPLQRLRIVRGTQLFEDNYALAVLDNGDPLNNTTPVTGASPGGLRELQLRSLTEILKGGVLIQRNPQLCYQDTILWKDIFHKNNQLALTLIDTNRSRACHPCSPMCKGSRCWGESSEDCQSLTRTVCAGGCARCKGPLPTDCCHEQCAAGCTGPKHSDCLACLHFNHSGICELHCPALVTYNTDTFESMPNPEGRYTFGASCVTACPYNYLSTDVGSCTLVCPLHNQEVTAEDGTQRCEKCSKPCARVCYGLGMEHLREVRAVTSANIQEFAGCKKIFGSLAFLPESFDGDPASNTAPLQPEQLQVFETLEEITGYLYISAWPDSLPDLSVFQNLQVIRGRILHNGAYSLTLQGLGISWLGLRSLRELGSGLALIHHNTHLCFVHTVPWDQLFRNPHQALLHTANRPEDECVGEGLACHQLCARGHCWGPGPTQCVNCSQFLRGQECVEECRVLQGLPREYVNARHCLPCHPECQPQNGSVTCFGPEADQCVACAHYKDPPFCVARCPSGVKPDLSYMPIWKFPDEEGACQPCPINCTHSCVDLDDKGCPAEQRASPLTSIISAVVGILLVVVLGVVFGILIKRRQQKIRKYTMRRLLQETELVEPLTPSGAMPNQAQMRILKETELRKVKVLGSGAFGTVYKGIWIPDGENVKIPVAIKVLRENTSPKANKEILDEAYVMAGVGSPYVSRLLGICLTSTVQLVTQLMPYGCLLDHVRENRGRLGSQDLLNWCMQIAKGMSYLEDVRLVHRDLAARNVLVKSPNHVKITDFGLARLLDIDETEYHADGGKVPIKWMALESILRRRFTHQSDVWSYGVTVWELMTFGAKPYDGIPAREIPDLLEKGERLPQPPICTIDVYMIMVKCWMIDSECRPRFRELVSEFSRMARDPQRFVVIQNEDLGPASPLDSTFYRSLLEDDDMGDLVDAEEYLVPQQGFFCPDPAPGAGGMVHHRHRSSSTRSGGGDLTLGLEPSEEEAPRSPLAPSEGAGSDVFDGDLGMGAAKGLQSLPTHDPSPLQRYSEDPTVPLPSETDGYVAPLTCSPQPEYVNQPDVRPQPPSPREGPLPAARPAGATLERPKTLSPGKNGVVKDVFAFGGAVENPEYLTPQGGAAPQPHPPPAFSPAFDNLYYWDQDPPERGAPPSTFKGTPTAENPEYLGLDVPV
Outline: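 Readout is HTRF KinEASE-TK, using Sa-XL665 and cryptate antibody for 1 h at 22 °C, as percent of control between DMSO-only (100) and pre-quenched (0) reactions. The kinase reaction runs 30 min at 22 °C with 1 mM ATP and 250 nM biotinylated TK substrate, in HEPES pH 7.4 with MgCl2 and 2% DMSO.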

[2] = molecular target: ErbB2 insYVMA (HER2-YVMA, SEQ ID NO: 2) (Homo sapiens, UniProt P04626, INS775YVMA/P1170A); assay: biochemical; settings: ErbB2 insYVMA enzyme assay
ErbB2 insYVMA (HER2-YVMA, SEQ ID NO: 2), sequence (P04626 with tags, fused parts or gaps INS775YVMA/P1170A limits assumed): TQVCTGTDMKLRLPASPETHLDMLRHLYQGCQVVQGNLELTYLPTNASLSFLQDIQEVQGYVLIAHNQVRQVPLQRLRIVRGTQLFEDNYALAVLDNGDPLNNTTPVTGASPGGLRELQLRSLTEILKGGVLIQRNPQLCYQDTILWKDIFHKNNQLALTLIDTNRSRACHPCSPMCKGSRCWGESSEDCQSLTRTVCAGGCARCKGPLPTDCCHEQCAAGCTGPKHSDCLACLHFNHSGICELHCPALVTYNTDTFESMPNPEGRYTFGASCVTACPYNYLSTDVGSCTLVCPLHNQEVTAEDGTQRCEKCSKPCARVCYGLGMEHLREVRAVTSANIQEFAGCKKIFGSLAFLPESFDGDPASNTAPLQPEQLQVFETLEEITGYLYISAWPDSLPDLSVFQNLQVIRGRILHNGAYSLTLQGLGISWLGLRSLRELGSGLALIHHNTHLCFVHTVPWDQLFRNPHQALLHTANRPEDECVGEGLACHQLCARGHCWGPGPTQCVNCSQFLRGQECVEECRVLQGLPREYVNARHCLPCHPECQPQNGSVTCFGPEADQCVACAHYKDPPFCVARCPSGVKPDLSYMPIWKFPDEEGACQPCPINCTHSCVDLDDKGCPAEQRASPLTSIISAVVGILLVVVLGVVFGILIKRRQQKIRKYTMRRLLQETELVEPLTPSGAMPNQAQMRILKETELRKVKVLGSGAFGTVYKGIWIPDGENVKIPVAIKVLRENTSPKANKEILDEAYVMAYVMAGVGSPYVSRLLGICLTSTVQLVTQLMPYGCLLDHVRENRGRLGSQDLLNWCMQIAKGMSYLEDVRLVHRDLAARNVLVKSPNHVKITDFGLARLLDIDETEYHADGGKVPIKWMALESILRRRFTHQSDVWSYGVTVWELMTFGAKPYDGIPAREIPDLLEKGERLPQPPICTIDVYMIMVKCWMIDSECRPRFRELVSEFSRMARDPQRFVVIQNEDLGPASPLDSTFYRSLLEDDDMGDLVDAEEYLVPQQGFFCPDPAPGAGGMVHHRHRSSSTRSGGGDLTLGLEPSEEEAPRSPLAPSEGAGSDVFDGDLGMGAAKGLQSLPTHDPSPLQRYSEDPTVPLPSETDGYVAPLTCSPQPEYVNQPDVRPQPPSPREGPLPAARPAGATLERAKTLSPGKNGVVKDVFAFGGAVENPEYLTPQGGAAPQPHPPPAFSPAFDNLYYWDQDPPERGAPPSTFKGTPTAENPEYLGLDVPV

Compound	IC50 (EGFR wild type (EGFR WT)) [nM]	IC50 [1] [nM]	IC50 (EGFR) [nM]	IC50 (ErbB2 WT) [nM]	IC50 ([2]; read-out: Assay 1 IC50) [nM]	IC50 ([2]; Assay 1 IC50 (nM)) [nM]
Cn1cnc2cc(Oc3ccc(Nc4ncnc5cnc(N6C[C@@H]7CC[C@H]6CO7)nc45)cc3Cl)ccc21 [Example 446]	≥ 5000	123	≥ 10000	134	20.7	
Cn1cnc2cc(Oc3ccc(Nc4ncnc5cnc(N6CC7CCC(C6)O7)nc45)cc3Cl)ccc21 [Example 447]	≥ 5000	12.2	≥ 10000	91		46.8
Cn1cnc2cc(Oc3ccc(Nc4ncnc5cnc(N6CCOC(C)(C)C6)nc45)cc3Cl)ccc21 [Example 448]	≥ 5000	40.8	≥ 10000	143	75.9	
Cn1cnc2cc(Oc3ccc(Nc4ncnc5cnc(N6CCOC7(CC7)C6)nc45)cc3Cl)ccc21 [Example 449]	≥ 5000	6.2	≥ 10000	152	157	
C[C@H]1CN(c2ncc3ncnc(Nc4ccc(Oc5ccc6c(c5)ncn6C)c(Cl)c4)c3n2)CCO1 [Example 450]	≥ 5000	13.4	4010	55	26.1	
Cn1cnc2cc(Oc3ccc(Nc4ncnc5cnc(N6C[C@H]7CC[C@@H]6CO7)nc45)cc3Cl)ccc21 [Example 451]	≥ 5000	24.7	3500	63.8		42.7
C[C@@H]1CN(c2ncc3ncnc(Nc4ccc(Oc5ccc6c(c5)ncn6C)c(Cl)c4)c3n2)CCO1 [Example 452]	≥ 5000	20.2	≥ 10000	115	47.6	
Cc1c(Oc2ccc3c(c2)ncn3C)ccc(Nc2ncnc3cnc(N4CC[C@H]4C(C)(C)O)nc23)c1F [Example 453]	≥ 5000	383	≥ 10000	474	64.6	
Cn1cnc2cc(Oc3ccc(Nc4ncnc5cnc(N6C[C@H]7C[C@@H]6CO7)nc45)cc3Cl)ccc21 [Example 455]	≥ 5000	58.2	≥ 10000	176	48.7	
CN(CC(C)(C)O)c1ncc2ncnc(Nc3ccc(Oc4ccc5c(c4)ncn5C)c(Cl)c3)c2n1 [Example 456]	≥ 5000	47.6	4520	69.8	25.9	
Cc1c(Oc2ccc3c(c2)ncn3C)ccc(Nc2ncnc3cnc(N4C[C@H]5C[C@@H]4CO5)nc23)c1F [Example 457]	≥ 5000	50.6	8240	83.9	25.1	
Cc1c(Oc2ccc3c(c2)ncn3C)ccc(Nc2ncnc3cnc(N4CC[C@H](O)C4)nc23)c1F [Example 458]	≥ 5000	75.2	1630	28	13.3	
Cc1cc(Nc2ncnc3cnc(N4C[C@H]5C[C@@H]4C[C@H]5O)nc23)ccc1Oc1ccc2c(c1)ncn2C [Example 459]	≥ 5000	45.1	≥ 10000	36.6	18.7	
Cc1cc(Nc2ncnc3cnc(N4CCC(F)(F)[C@@H](O)C4)nc23)ccc1Oc1ccc2c(c1)ncn2C [Example 460]	≥ 5000	88	≥ 10000	89.7	59.1	
Cc1cc(Nc2ncnc3cnc(N4CCC[C@](C)(O)C4)nc23)ccc1Oc1ccc2c(c1)ncn2C [Example 461]	≥ 5000	46.5	≥ 10000	31.9	20.5	
Cc1cc(Nc2ncnc3cnc(N4CC5CCOC5C4)nc23)ccc1Oc1ccc2c(c1)ncn2C (stereo not drawn) [Example 462]	≥ 5000	18.6	≥ 10000	41.5	20.3	
Cc1cc(Nc2ncnc3cnc(N4CCP(C)(=O)CC4)nc23)ccc1Oc1ccc2c(c1)ncn2C [Example 463]	≥ 5000	662	≥ 10000	275	71.3	
Cc1cc(Nc2ncnc3cnc(N4CC5CC(C4)C5O)nc23)ccc1Oc1ccc2c(c1)ncn2C (stereo not drawn) [Example 464]	≥ 5000	83.1	≥ 10000	60.2		9.4
Cc1cc(Nc2ncnc3cnc(N4CC5(CCC5O)C4)nc23)ccc1Oc1ccc2c(c1)ncn2C (stereo not drawn) [Example 465]	≥ 5000	67.8	≥ 10000	47.6	44.3	
Cc1cc(Nc2ncnc3cnc(N4C[C@H]5COC[C@H]5C4)nc23)ccc1Oc1ccc2c(c1)ncn2C [Example 466]	≥ 5000	16.2	≥ 10000	61.3	24.1	
Cc1cc(Nc2ncnc3cnc(N(C)[C@H]4C[C@@H](C(C)(C)O)C4)nc23)ccc1Oc1ccc2c(c1)ncn2C [Example 467]	≥ 5000	19.4	4790	34.5	26.4	
Cc1cc(Nc2ncnc3cnc(N4C[C@@H](O)C(C)(C)C4)nc23)ccc1Oc1ccc2c(c1)ncn2C [Example 468]	≥ 5000	87.2	≥ 10000	130	39.1	
Cc1cc(Nc2ncnc3cnc(N4C[C@@H]5C[C@H]4C[C@H]5O)nc23)ccc1Oc1ccc2c(c1)ncn2C [Example 471]	≥ 5000	42.5	≥ 10000	49.4	7.1	
Cc1cc(Nc2ncnc3cnc(N4CCC(C)(C#N)C4)nc23)ccc1Oc1ccc2c(c1)ncn2C (stereo not drawn) [Example 475]	≥ 5000	82.6	≥ 10000	88.6	22.4	
Cc1cc(Nc2ncnc3cnc(N4CCN(CC(F)F)CC4)nc23)ccc1Oc1ccc2c(c1)ncn2C [Example 477]	≥ 5000	53.3	≥ 10000	47.1	59.6	
CCN(CC(C)(C)O)c1ncc2ncnc(Nc3ccc(Oc4ccc5c(c4)ncn5C)c(C)c3)c2n1 [Example 478]	≥ 5000	109	≥ 10000	41.6	27.9	
CN(CCC(C)(C)O)c1ncc2ncnc(Nc3ccc(Oc4ccc5c(c4)ncn5C)c(Cl)c3)c2n1 [Example 479]	≥ 5000	12.9	2210	24.4	26.5	
Cn1cnc2cc(Oc3ccc(Nc4ncnc5cnc(N6CCC(C)(O)CC6)nc45)cc3Cl)ccc21 [Example 480]	≥ 5000	4.4	5040	23.3	18.1	
Cc1cc(Nc2ncnc3cnc(N4C[C@H]5C[C@@H]4CO5)nc23)c(F)cc1Oc1ccc2c(c1)ncn2C [Example 481]	≥ 5000	74.2	≥ 10000	41.2	29.4	
Cc1cc(Nc2ncnc3cnc(N4CCC(C)(O)CC4)nc23)c(Cl)cc1Oc1ccc2c(c1)ncn2C [Example 482]	≥ 5000	229	≥ 10000	446	76.7	

Source: patent US11834453B2, “Substituted pyrimido[5,4-d]pyrimidines as HER2 inhibitors” (Array BioPharma Inc., priority 2020, dated 2023)
